Results as given in ChEMBL document CHEMBL4680225, “Design and development of ((4-methoxyphenyl)carbamoyl) (5-(5-nitrothiophen-2-yl)-1,3,4-thiadiazol-2-yl)amide analogues as Mycobacterium tuberculosis ketol-acid reductoisomerase inhibitors” (Eur J Med Chem, 2020).
Values after ≈ are worked out from the molar mass of the structure shown.

How the values were obtained:
[1] = Protection index, ratio IC50 for HEK293 cells to MIC for antitubercular activity against Mycobacterium tuberculosis H37Rv
[2] = tested on: Mycobacterium tuberculosis; experiment: Antitubercular activity against Mycobacterium tuberculosis H37Rv infected in mouse primary macrophages assessed as log reduction in bacterial growth at 10 uM measured after 48 hrs relative to control; type: functional, Primary macrophage
HEK293 = experiment: Cytotoxicity against HEK293 cells assessed as reduction in cell viability measured after 48 hrs by MTT assay; type: cell-based; details: Homo sapiens, HEK293, 48 h
[3] = tested on: Mycobacterium tuberculosis; experiment: Inhibition of N-terminal 6His-taggged Mycobacterium tuberculosis KARI expressed in Escherichia coli BL21 at 100 uM using 2-acetolactate as substrate preincubated for 30 mins followed by substrate addition in presence of NADPH relative to control
[4] = tested on: Mycobacterium tuberculosis; experiment: Antibiofilm activity against Mycobacterium tuberculosis assessed as log reduction in bacterial growth at 10 uM measured after 1 week relative to control; type: functional, H37Rv; details: time 1 weeks
[5] = Inhibition of N-terminal 6His-taggged Mycobacterium tuberculosis KARI expressed in Escherichia coli BL21 using 2-acetolactate as substrate preincubated for 30 mins followed by substrate addition in presence of NADPH
[6] = tested on: Mycobacterium tuberculosis; experiment: Antitubercular activity against Mycobacterium tuberculosis H37Rv measured after 1 week by microplate alamar blue assay; type: functional; details: 168 h, time 1 weeks
[7] = tested on: Mycobacterium tuberculosis; experiment: Antitubercular activity against 6-weeks nutrient starved phase cultures of Mycobacterium tuberculosis H37Rv assessed as log reduction in bacterial growth at 10 uM treated for 7 days measured after 4 weeks relative to control; type: functional; details: time 5 weeks
[8] = tested on: Mycobacterium tuberculosis; experiment: Antimycobacterial activity against dormant Mycobacterium tuberculosis H37Rv under nutrient deprived condition; type: functional, organism-based; details: TDE = time-dependent effect
[9] = tested on: Mycobacterium tuberculosis; experiment: Antimycobacterial activity against dormant Mycobacterium tuberculosis H37Rv incubated for 7 days under nutrient deprived condition; type: functional, organism-based; details: time 7.0 day
[10] = tested on: Mycobacterium tuberculosis; experiment: Antitubercular activity against early logarithmic phase cultures of Mycobacterium tuberculosis H37Rv at 1.56 to 100 uM; type: functional, organism-based; details: dose 1.56-100 µM, TDE = time-dependent effect
[11] = tested on: Mycobacterium tuberculosis; experiment: Antitubercular activity against early logarithmic phase cultures of Mycobacterium tuberculosis H37Rv treated for 6 days and measured 2 days post last dose; type: functional, organism-based; details: time 8.0 day

Row | Compound | PI [1] | log(activity) [2] | IC50 (HEK293) [µM] | inhibition [3] [%] | log(activity) [4] | Ki [5] [µM] | MIC [6] [µM] | log(activity) [7] | Activity [8] | Activity [9] | Activity [10] | Activity [11]
1 | COc1ccc(NC(=S)Nc2nnc(-c3ccc([N+](=O)[O-])s3)s2)cc1 | 87.4 | 2.2 | 68.2 | > 50 | 1.5 | 9.27 | 0.78 (≈ 0.307 µg/mL) | 1.8 | – | – | – | –
2 | CC[C@@H](CO)NCCN[C@@H](CC)CO [ETHAMBUTOL] | – | – | – | – | – | – | 7.63 (≈ 1.56 µg/mL) | – | – | – | – | –
3 | NNC(=O)c1ccncc1 [ISONIAZID] | – | 2.5 | – | – | 1 | – | 0.4 (≈ 0.0549 µg/mL) | 1.5 | – | – | – | –
4 | CC(=O)c1ccc(S(=O)(=O)Nc2nnc(-c3ccc([N+](=O)[O-])o3)s2)cc1 | 36.6 | 1.6 | 57.1 | > 50 | 1.1 | 4.72 | 1.56 (≈ 0.615 µg/mL) | 2.1 | Tde | Dose-dependent effect | Tde | –
5 | CO[C@H]1/C=C/O[C@@]2(C)Oc3c(C)c(O)c4c(O)c(c(/C=N/N5CCN(C)CC5)c(O)c4c3C2=O)NC(=O)/C(C)=C\C=C\[C@H](C)[C@H](O)[C@@H](C)[C@@H](O)[C@@H](C)[C@H](OC(C)=O)[C@@H]1C [RIFAMPIN] | – | – | – | – | 0.9 | – | 0.5 (≈ 0.411 µg/mL) | 1.8 | – | – | – | –
6 | O=[N+]([O-])c1ccc(-c2nnc(NC(=S)Nc3ccc(Cl)cc3)s2)s1 | 4.1 | – | 102 | > 50 | 1.2 | 8.35 | 25 (≈ 9.95 µg/mL) | 1 | – | – | – | –
7 | COc1ccc(NC(=O)Nc2nnc(-c3ccc([N+](=O)[O-])s3)s2)cc1 | – | – | – | – | – | 3.06 | – | – | – | – | – | –
8 | COc1c(N2C[C@@H]3CCCN[C@@H]3C2)c(F)cc2c(=O)c(C(=O)O)cn(C3CC3)c12 [MOXIFLOXACIN] | – | – | – | – | 1.8 | – | – | 2 | – | – | – | –
9 | O=[N+]([O-])c1ccc(-c2nnc(NC(=S)Nc3ccc(F)cc3)s2)o1 | 92.9 | 1.9 | 72.5 | > 50 | 1.3 | 5.48 | 0.78 (≈ 0.285 µg/mL) | 2.3 | – | – | – | Dose-dependent effect
10 | COc1ccc(NC(=S)Nc2nnc(-c3ccc([N+](=O)[O-])o3)s2)cc1 | 110.2 | 1.7 | 86 | > 50 | 1.8 | 2.02 | 0.78 (≈ 0.294 µg/mL) | 2.5 | Tde | Dose-dependent effect | – | Dose-dependent effect
